Data taken from PubChem BioAssay (NCI).
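Tested at 5 concentrations; 48 h exposure; 96-well plates; endpoints linearly interpolated, else capped at highest concentration. TGI: total growth inhibition.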

Tests used:
Assay in all cases: DTP human tumour cell line panel, 48 h
[1] = system: BT-549 breast
[2] = system: CAKI-1 renal
[3] = system: DU-145 prostate
[4] = system: HCT-116 colon
[5] = system: MALME-3M melanoma
[6] = system: MDA-MB-435
[7] = system: SF-539 CNS
[8] = system: SK-MEL-28 melanoma
[9] = system: SNB-19 CNS
[10] = system: TK-10 renal

| SMILES | TGI [1] | TGI [2] | TGI [3] | TGI [4] | TGI [5] | TGI [6] | TGI [7] | TGI [8] | TGI [9] | TGI [10] |
| --- | --- | --- | --- | --- | --- | --- | --- | --- | --- | --- |
| CCOC(=O)N1CCN(Cc2cc(=O)n3ccc(C)cc3n2)CC1 | > 100 µM | > 100 µM | > 100 µM | > 100 µM | > 100 µM | > 100 µM | > 100 µM | > 100 µM | > 100 µM | > 100 µM |
| CC1=Nc2ccccc2OC(C)=C1N=Nc1ccc2nc(C)[nH]c2c1 | > 100 µM | > 100 µM | > 100 µM | > 100 µM | > 100 µM | > 100 µM | > 100 µM | > 100 µM | > 100 µM | > 100 µM |
| CCCCOC(=O)Nc1ccc(S(=O)(=O)Nc2ccccc2Cl)cc1 | 39.2 µM | 44.5 µM | > 100 µM | 41.6 µM | 52.5 µM | 36 µM | 32.7 µM | 36.2 µM | 49.8 µM | 46.6 µM |
| C[C@]12CCC3C4=C(CCC3C1CCC2=O)C(=O)[C@H]1O[C@H]1C4=O (stereo not given in full) | 4.83 µM | 4.88 µM | 8.41 µM | 2.16 µM | 37.5 µM | 24.9 µM | 5.38 µM | 25.4 µM | 30 µM | 10.8 µM |
| N#CC(NCc1cccc(CNC(C#N)c2ccccc2)c1)c1ccccc1 (stereo not given) | 87 µM | > 100 µM | > 100 µM | 56.4 µM | 65.9 µM | > 100 µM | 26.1 µM | 33.8 µM | > 100 µM | > 100 µM |
| O=[N+]([O-])c1cc(C=NC23CC4CC(CC(C4)C2)C3)ccc1Cl | 45.3 µM | 18.7 µM | > 60.4 µM | 19.5 µM | 42.5 µM | 42.2 µM | 55.7 µM | 38 µM | > 58.5 µM | > 87.2 µM |
| O=C(/C=C/c1ccccc1)C[C@@H](O)C[C@@H]1CC=CC(=O)O1 | 27.7 µM | 27.6 µM | > 60.5 µM | 6.38 µM | 30.6 µM | 26.6 µM | 14.9 µM | 24.9 µM | 35.7 µM | 28.9 µM |
| S=C(N/N=C(/c1ccccc1)c1ccccn1)N(Cc1ccccn1)Cc1ccccn1 | 1.51 µM | 1.42 µM | 4.42 µM | 1.59 µM | 2.45 µM | 3.56 µM | 3.45 µM | 5.45 µM | 2.26 µM | 1.58 µM |
| CC(=O)c1c2c(c3ccccc3c1O)O[C@@H]1OCC[C@H]21 | > 100 µM | > 100 µM | > 100 µM | > 100 µM | > 100 µM | > 100 µM | > 100 µM | > 100 µM | > 100 µM | > 100 µM |
| COC(=O)c1c(C)nc2c1cc(O)c1[nH]c(C)c(C)nc12 | > 100 µM | > 100 µM | > 100 µM | > 100 µM | > 100 µM | > 100 µM | > 100 µM | > 100 µM | > 100 µM | > 100 µM |
| COc1cccc(Nc2nc(-c3cccs3)nc3cc(OC)c(OC)cc23)c1 | 86 µM | 73.4 µM | > 100 µM | 54 µM | > 100 µM | 96.4 µM | 45.7 µM | > 100 µM | > 100 µM | > 100 µM |
| Nc1c(-c2ccc(Cl)c(Cl)c2)c2ccc([N+](=O)[O-])cc2c(=O)n1-c1nc2ccccc2s1 | 21.7 µM | > 39.7 µM | > 100 µM | 12.9 µM | 9.72 µM | > 100 µM | 16.3 µM | > 100 µM | > 49.4 µM | 30.5 µM |
| Cc1cc(-c2nc3ccc(F)cc3s2)ccc1NC(=O)[C@H](C)N | 26.8 µM | 22.1 µM | 26 µM | 11.4 µM | 36.2 µM | 5.82 µM | 14.9 µM | 29.3 µM | 29.6 µM | 5.11 µM |
| NC1(c2cc3ccccc3s2)CCCC1 | > 100 µM | > 100 µM | > 100 µM | > 100 µM | > 100 µM | > 100 µM | 45.3 µM | 48.1 µM | > 100 µM | 85.7 µM |
| NS(=O)(=O)c1nnc(NC(=O)Nc2ccc(Cl)c(Cl)c2)s1 | 52.2 µM | 78.8 µM | > 100 µM | 42.4 µM | 39.9 µM | 50 µM | 34.1 µM | 39.3 µM | 55.8 µM | 43.9 µM |
| CC(=O)Nc1nc(NC(C)=O)c2[nH]c(CO)nc2n1 | > 100 µM | > 100 µM | > 100 µM | > 100 µM | > 100 µM | > 100 µM | > 100 µM | > 100 µM | > 100 µM | > 100 µM |
| Cc1cc(Nc2ccc(S(=O)(=O)O)c3cc(S(=O)(=O)O)cc(S(=O)(=O)O)c23)c2ccccc2n1 | > 100 µM | > 100 µM | > 100 µM | > 100 µM | > 100 µM | > 100 µM | > 100 µM | > 100 µM | > 100 µM | > 100 µM |
| Cc1oc2c(cc(O)c3cc(O)ccc32)c2cccc1-2 | 44 µM | > 100 µM | > 100 µM | > 100 µM | > 100 µM | > 100 µM | > 100 µM | > 100 µM | > 100 µM | > 100 µM |
